This assay concerns the target T1, calcium channel (Oryctolagus cuniculus, UniProt P15381).
T1 construct: from tissue; host or cells: rabbit heart membrane preparation
The assay is described as follows: Assay for Inhibition of Nitrendipine Binding (3H-nitrendipine, heart membranes). To be noted: 3H-nitrendipine displacement, rabbit heart membranes. The protocol:
Female, New Zealand white rabbits (1-2 kg) are sacrificed by cervical dislocation, and the heart is immediately removed, cleaned and chopped into small pieces. The tissue is homogenized in 5× times volume of 0.05M Hepes buffer, pH 7.4. The homogenate is centrifuged at 4000 g for 10 minutes, and the supernatant is re-centrifuged at 42,000×g for 90 minutes. The resulting membrane pellet is resuspended (0.7 ml/g weight) in 0.05M Hepes, pH 7.4 and stored at […] until used. Each tube of the binding assay contains ^3H-nitrendipine (0.05-0.50 nM), buffer, membranes (0.10 ml), and test compound in a total volume of 1.0 ml. After 90 minutes at 4° C., the bound nitrendipine is separated from the unbound by filtration on Whatman GF/C filters. After rinsing, the filters are dried and counted in a liquid scintillation counter.
Non-specific binding of ^3H-nitrendipine (that amount bound in the presence of excess unlabelled nitrendipine) is subtracted from the total bound to obtain specifically bound radiolabeled nitrendipine. The amount of specifically bound nitrendipine in the presence of a test compound is compared to that amount bound in the absence of a compound. A percent displacement (or inhibition) can then be calculated.

The values below come from US20020026051A1, “Dithiepino [6,5-b]pyridines, and related compositions and methods” (priority 1999, published 2002).

T1 sequence (P15381 whole entry, other chains not shown): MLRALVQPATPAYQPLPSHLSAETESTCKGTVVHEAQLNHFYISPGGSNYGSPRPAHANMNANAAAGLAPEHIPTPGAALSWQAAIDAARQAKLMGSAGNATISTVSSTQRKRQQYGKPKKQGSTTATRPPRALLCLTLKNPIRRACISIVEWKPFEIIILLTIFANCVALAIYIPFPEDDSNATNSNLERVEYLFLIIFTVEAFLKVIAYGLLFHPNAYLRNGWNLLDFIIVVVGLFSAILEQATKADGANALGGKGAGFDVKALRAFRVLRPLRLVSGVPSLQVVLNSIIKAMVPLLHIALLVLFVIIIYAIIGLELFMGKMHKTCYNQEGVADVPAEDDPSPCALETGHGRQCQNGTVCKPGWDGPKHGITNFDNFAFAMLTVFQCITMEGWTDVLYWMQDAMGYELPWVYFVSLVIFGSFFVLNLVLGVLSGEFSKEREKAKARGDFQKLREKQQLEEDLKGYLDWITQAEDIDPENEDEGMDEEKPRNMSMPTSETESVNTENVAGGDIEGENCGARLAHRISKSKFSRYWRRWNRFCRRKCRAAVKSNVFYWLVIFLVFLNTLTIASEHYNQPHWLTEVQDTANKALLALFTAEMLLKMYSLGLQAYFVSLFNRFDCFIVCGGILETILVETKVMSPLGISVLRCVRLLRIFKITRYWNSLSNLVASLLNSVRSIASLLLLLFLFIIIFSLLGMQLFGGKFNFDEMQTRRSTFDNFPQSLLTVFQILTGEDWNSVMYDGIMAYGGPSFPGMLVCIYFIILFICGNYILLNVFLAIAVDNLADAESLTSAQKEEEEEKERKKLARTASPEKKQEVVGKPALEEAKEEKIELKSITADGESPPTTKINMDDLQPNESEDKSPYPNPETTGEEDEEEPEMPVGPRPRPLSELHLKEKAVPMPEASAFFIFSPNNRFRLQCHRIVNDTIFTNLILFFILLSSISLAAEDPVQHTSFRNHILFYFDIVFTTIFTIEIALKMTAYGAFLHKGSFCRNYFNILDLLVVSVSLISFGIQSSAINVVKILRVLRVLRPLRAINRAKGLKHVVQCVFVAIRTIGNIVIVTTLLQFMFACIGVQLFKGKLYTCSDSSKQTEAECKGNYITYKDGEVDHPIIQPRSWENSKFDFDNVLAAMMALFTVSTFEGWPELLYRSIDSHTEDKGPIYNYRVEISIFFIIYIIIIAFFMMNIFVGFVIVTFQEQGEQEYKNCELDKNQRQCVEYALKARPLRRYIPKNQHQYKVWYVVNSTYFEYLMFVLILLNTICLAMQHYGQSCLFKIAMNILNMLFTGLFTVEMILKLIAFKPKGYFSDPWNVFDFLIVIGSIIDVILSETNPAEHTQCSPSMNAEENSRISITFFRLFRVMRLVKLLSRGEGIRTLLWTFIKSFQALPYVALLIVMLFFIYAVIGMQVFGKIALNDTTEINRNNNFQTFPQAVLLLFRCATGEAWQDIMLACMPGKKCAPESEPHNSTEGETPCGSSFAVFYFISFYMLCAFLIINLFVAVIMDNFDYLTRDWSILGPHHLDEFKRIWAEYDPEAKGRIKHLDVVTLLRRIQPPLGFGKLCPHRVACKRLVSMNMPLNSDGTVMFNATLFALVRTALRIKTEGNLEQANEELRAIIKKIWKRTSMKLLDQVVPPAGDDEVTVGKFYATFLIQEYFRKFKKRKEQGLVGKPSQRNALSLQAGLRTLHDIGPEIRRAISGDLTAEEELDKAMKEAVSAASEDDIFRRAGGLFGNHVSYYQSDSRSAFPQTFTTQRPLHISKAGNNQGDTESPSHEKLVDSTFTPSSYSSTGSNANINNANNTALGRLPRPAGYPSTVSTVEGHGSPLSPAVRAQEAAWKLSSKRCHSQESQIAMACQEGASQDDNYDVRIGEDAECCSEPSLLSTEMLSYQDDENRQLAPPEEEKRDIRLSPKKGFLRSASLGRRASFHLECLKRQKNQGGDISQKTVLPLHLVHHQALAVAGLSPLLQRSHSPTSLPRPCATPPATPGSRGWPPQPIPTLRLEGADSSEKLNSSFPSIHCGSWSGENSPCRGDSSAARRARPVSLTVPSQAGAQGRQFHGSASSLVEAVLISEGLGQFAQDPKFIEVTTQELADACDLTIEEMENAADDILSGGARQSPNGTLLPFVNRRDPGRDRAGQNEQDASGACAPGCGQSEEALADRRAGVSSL
T1 sequence (P13806 27-960 partner limits assumed, other chains not shown): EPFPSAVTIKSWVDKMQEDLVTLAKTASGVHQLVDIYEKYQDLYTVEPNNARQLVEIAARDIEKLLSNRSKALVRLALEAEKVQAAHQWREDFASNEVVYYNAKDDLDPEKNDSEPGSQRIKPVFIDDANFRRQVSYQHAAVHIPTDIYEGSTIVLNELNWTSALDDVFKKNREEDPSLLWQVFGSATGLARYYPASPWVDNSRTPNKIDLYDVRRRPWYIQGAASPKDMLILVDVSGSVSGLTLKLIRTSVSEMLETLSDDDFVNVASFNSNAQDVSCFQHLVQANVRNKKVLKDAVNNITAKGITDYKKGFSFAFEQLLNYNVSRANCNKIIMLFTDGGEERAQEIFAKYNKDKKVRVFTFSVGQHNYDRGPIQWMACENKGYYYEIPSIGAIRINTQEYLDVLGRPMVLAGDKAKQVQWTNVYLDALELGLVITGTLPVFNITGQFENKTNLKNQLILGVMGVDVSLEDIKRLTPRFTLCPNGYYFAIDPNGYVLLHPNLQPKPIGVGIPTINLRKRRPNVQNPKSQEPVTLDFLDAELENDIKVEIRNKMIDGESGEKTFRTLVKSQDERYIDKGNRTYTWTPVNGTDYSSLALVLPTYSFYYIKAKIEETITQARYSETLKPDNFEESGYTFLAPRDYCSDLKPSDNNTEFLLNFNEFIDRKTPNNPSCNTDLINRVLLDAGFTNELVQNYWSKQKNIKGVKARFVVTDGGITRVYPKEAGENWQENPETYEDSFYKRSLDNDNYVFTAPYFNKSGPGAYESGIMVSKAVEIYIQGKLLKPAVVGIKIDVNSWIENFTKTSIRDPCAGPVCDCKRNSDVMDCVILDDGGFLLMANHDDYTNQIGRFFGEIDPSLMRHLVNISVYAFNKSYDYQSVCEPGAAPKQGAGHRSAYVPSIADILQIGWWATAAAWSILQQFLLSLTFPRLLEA
T1 sequence (P13806 961-1106 partner limits assumed, other chains not shown): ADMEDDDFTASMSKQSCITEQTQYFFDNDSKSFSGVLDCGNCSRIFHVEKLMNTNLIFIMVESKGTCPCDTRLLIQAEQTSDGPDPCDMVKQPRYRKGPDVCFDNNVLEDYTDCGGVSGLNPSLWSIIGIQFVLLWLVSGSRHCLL

In the case of `COC(=O)C1=C(C)NC2=C(C1c1cccc(C(F)(F)F)c1F)S(=O)(=O)CC(CO)S(=O)(=O)C2` (stereo not drawn) [Compound 22, 5H-1,4-Dithiepino[6,5-b]pyridine-8-carboxylic acid, 9-[2-fluoro-3-(trifluoromethyl)phenyl]-2,3,6,9-tetrahydro-3-(hydroxymethyl)-7-methyl-methyl ester 1,1,4,4-tetraoxide], the IC50 (usually the concentration that inhibits the measured activity by half) (Tables 1-5) was found to be 193 nM. The same measure, in the same setting: in the case of `CC1=C(C(=O)OCCN(C)Cc2ccccc2)C(c2cccc(C(F)(F)F)c2F)C2=C(CS(=O)(=O)C(CO)CS2(=O)=O)N1` (stereo not drawn) [Compound 23, 5H-1,4-Dithiepino[6,5-b]pyridine-8-carboxylic acid, 9-[2-fluoro-3-(trifluoromethyl)phenyl]-2,3,6,9-tetrahydro-3-(hydroxymethyl)-7-methyl-2-[methyl(phenylmethyl)amino]ethyl ester 1,1,4,4-tetraoxide] it was 215 nM; in that of `CC1=C(C(=O)OCCN(C)Cc2ccccc2)C(c2cccc([N+](=O)[O-])c2)C2=C(CS(=O)(=O)C(CO)CS2(=O)=O)N1` (stereo not drawn) [Compound 24, 5H-1,4-Dithiepino[6,5-b]pyridine-8-carboxylic acid, 2,3,6,9-tetrahydro-3-(hydroxymethyl)-7-methyl-9-(3-nitrophenyl)-2-[methyl(phenylmethyl)amino]ethyl ester 1,1,4,4-tetraoxide], 337 nM; in that of `CC1=C(C(=O)OCCN(C)Cc2ccccc2)C(c2cccc([N+](=O)[O-])c2)C2=C(CS(=O)(=O)CCCS2(=O)=O)N1` (stereo not drawn) [Compound 25, 2H,6H-1,5-Dithiocino[3,2-b]pyridine-9-carboxylic acid, 3,4,7,10-tetrahydro-8-methyl-10-(3-nitrophenyl)-2-[methyl(phenylmethyl)amino]ethyl ester 1,1,5,5-tetraoxide], 10 nM. Same read-out and setting: in the case of `CC1=C(C(=O)OCCN(C)Cc2ccccc2)C(c2c(F)cccc2C(F)(F)F)C2=C(CS(=O)(=O)CCCS2(=O)=O)N1` (stereo not drawn) [Compound 26, 2H,6H-1,5-Dithiocino[3,2-b]pyridine-9-carboxylic acid, 10-[2-fluoro-6-(trifluoromethyl)phenyl]-3,4,7,10-tetrahydro-8-methyl-2-[methyl(phenylmethyl)amino]ethyl ester 1,1,5,5-tetraoxide] it was 28 nM. Still for that read-out and setting: the figure for `CC1=C(C(=O)OCCN(C)Cc2ccccc2)C(c2cccc(C(F)(F)F)c2F)C2=C(CS(=O)(=O)CCCS2(=O)=O)N1` (stereo not drawn) [Compound 28, 2H,6H-1,5-Dithiocino[3,2-b]pyridine-9-carboxylic acid, 10-[2-fluoro-3-(trifluoromethyl)phenyl]-3,4,7,10-tetrahydro-8-methyl-2-[methyl(phenylmethyl)amino]ethyl ester 1,1,5,5-tetraoxide] is 53 nM. With `CC1=C(C(=O)OCCN(C)Cc2ccccc2)C(c2ccccc2Cl)C2=C(CS(=O)(=O)CCCS2(=O)=O)N1` (stereo not drawn) [Compound 29, 2H,6H-1,5-Dithiocino[3,2-b]pyridine-9-carboxylic acid, 10-(2-chlorophenyl)-3,4,7,10-tetrahydro-8-methyl-2-[methyl(phenylmethyl)amino]ethyl ester 1,1,5,5-tetraoxide], the IC50 (Tables 1-5) was 57 nM. On the same count and under the same terms, in the case of `CC1=C(C(=O)OCCN(C)Cc2ccccc2)C(c2cccc(C(F)(F)F)c2F)C2=C(CS(=O)(=O)CS2(=O)=O)N1` (stereo not drawn) [Compound 31, 4H-1,3-Dithiino[5,4-b]pyridine-7-carboxylic acid, 8-[2-fluoro-3-(trifluoromethyl)phenyl]-5,8-dihydro-6-methyl-2-[methyl(phenylmethyl)amino]ethyl ester 1,1,3,3-tetraoxide] it was 28 nM; in that of `CC1=C(C(=O)OCCN(C)Cc2ccccc2)C(c2ccccc2Cl)C2=C(CS(=O)(=O)CS2(=O)=O)N1` (stereo not drawn) [Compound 32, 4H-1,3-Dithiino[5,4-b]pyridine-7-carboxylic acid, 8-(2-chlorophenyl)-5,8-dihydro-6-methyl-2-[methyl(phenylmethyl)amino]ethyl ester 1,1,3,3-tetraoxide], 39 nM. As to `CCC(CC)C(=O)OCCOC(=O)C1=C(C)NC2=C(C1c1c(F)cccc1Cl)S(=O)(=O)CCS(=O)(=O)C2` (stereo not drawn) [Compound 33], under “Tables 6-7”, the IC50 stood at 13 nM. The same measure, in the same setting: in the case of `CC1=C(C(=O)OCCOC(=O)C(C)C)C(c2cccc(Cl)c2Cl)C2=C(CS(=O)(=O)CCS2(=O)=O)N1` (stereo not drawn) [Compound 34, 5H-[1,4]dithiepino[6,5-b]pyridine-8-carboxylic acid, 9-(2,3-dichlorophenyl)-2,3,6,9-tetrahydro-7-methyl-, 2-(2-methyl-1-oxopropoxy)ethyl ester, 1,1,4,4-tetraoxide] it was 15 nM; in that of `CC1=C(C(=O)OCCOC(=O)c2ccc(OC(C)C)cc2)C(c2c(F)cccc2Cl)C2=C(CS(=O)(=O)CCS2(=O)=O)N1` (stereo not drawn) [Compound 35, 5H-[1,4]dithiepino[6,5-b]pyridine-8-carboxylic acid, 9-(2-chloro-6-fluorophenyl)-2,3,6,9-tetrahydro-7-methyl-, 2-[[4-(1-methylethoxy)benzoyl]oxy]ethyl ester, 1,1,4,4-tetraoxide], 20 nM; in that of `CC1=C(C(=O)OCCOC(=O)CCC(C)C)C(c2c(F)cccc2Cl)C2=C(CS(=O)(=O)CCS2(=O)=O)N1` (stereo not drawn) [Compound 36], 20 nM. On the same count and under the same terms, the figure for `CC1=C(C(=O)OCCOC(=O)C(C)Cc2ccccc2)C(c2c(F)cccc2Cl)C2=C(CS(=O)(=O)CCS2(=O)=O)N1` (stereo not drawn) [Compound 37] is 33 nM; for `CC1=C(C(=O)OCCOC(=O)CC(C)C)C(c2c(F)cccc2Cl)C2=C(CS(=O)(=O)CCS2(=O)=O)N1` (stereo not drawn) [Compound 38] it is 35 nM; for `CC1=C(C(=O)OCCOC(=O)C2CCCCCC2)C(c2c(F)cccc2Cl)C2=C(CS(=O)(=O)CCS2(=O)=O)N1` (stereo not drawn) [Compound 39, 5H-[1,4]dithiepino[6,5-b]pyridine-8-carboxylic acid, 9-(2-chloro-6-fluorophenyl)-2,3,6,9-tetrahydro-7-methyl-, 2-[(cycloheptylcarbonyl)oxy]ethyl ester, 1,1,4,4-tetraoxide] it is 38 nM. Still for that read-out and setting: in the case of `COc1cccc(C(=O)OCCOC(=O)C2=C(C)NC3=C(C2c2c(F)cccc2Cl)S(=O)(=O)CCS(=O)(=O)C3)c1` (stereo not drawn) [Compound 40] it was 41 nM. For `CC1=C(C(=O)OCCCOC(=O)c2ccccc2)C(c2c(F)cccc2Cl)C2=C(CS(=O)(=O)CCS2(=O)=O)N1` (stereo not drawn) [Compound 41, 7-methyl-9-[2-fluoro-6-chlorophenyl]-2,3,6,9-tetrahydro-1,1,4,4-tetraoxide 5H-1,4-Dithiepino[6,5-b]pyridine-8-carboxylic acid 3-benzoyloxypropyl ester], under “Tables 6-7”, the IC50 turned out to be 43 nM. Still for that read-out and setting: in the case of `CC1=C(C(=O)OCCOC(=O)C2CCc3ccccc3C2)C(c2c(F)cccc2Cl)C2=C(CS(=O)(=O)CCS2(=O)=O)N1` (stereo not drawn) [Compound 42, 7-methyl-9-[2-fluoro-6-chlorophenyl]-2,3,6 9-tetrahydo-1,1,4,4-tetraoxide 5H-1,4-Dithiepino[6,5-b]pyridine-8-carboxlic acid 2-[1,2,3,4-tetrahydo-2-napthoyl]oxyethyl ester] it was 44 nM; in that of `CC1=C(C(=O)OCCOC(=O)c2ccc3ccccc3c2)C(c2c(F)cccc2Cl)C2=C(CS(=O)(=O)CCS2(=O)=O)N1` (stereo not drawn) [Compound 46], 50 nM; in that of `CC1=C(C(=O)OCCOC(=O)CN(C)Cc2ccccc2)C(c2c(F)cccc2Cl)C2=C(CS(=O)(=O)CCS2(=O)=O)N1` (stereo not drawn) [Compound 47], 50 nM.

In the case of `CC1=C(C(=O)OCCOC(=O)c2ccc(C#N)cc2)C(c2c(F)cccc2Cl)C2=C(CS(=O)(=O)CCS2(=O)=O)N1` (stereo not drawn) [Compound 48], the IC50 (Tables 6-7) is 55 nM. Still for that read-out and setting: the figure for `CC1=C(C(=O)OCCCCOC(=O)c2ccccc2)C(c2c(F)cccc2Cl)C2=C(CS(=O)(=O)CCS2(=O)=O)N1` (stereo not drawn) [Compound 49] is 57 nM; for `CC1=C(C(=O)OCCOC(=O)c2ccccc2)C(c2c(F)cccc2Cl)C2=C(CS(=O)(=O)CCS2(=O)=O)N1` (stereo not drawn) [Compound 51] it is 62 nM. Same read-out and setting: the figure for `CC1=C(C(=O)OCCOC(=O)C2CCCCC2)C(c2c(F)cccc2Cl)C2=C(CS(=O)(=O)CCS2(=O)=O)N1` (stereo not drawn) [Compound 55] is 100 nM. Take `CC1=C(C(=O)OCCOC(=O)C(C)C)C(c2c(F)cccc2Cl)C2=C(CS(=O)(=O)CCS2(=O)=O)N1` (stereo not drawn) [Compound 57]: the IC50 (Tables 6-7) is 143 nM. Consider `CC1=C(C(=O)OCCOC(=O)CN(C)C(=O)c2ccccc2)C(c2c(F)cccc2Cl)C2=C(CS(=O)(=O)CCS2(=O)=O)N1` (stereo not drawn) [Compound 58], for which the IC50 (Tables 6-7) was 153 nM.

For `CC1=C(C(=O)OCC(=O)OCCc2ccccc2)C(c2c(F)cccc2Cl)C2=C(CS(=O)(=O)CCS2(=O)=O)N1` (stereo not drawn) [Compound 59], where the note is “Tables 6-7”, the IC50 was 154 nM. Same read-out and setting: the figure for `CC1=C(C(=O)OC2CCOC2=O)C(c2c(F)cccc2Cl)C2=C(CS(=O)(=O)CCS2(=O)=O)N1` (stereo not drawn) [Compound 60] is 174 nM; for `CC1=C(C(=O)OCCCOC(=O)C(C)C)C(c2c(F)cccc2Cl)C2=C(CS(=O)(=O)CCS2(=O)=O)N1` (stereo not drawn) [Compound 62] it is 176 nM. The same measure, in the same setting: the figure for `CC1=C(C(=O)OCCC2CCOC2=O)C(c2cccc(Cl)c2Cl)C2=C(CS(=O)(=O)CCS2(=O)=O)N1` (stereo not drawn) [Compound 63] is 194 nM; for `CC1=C(C(=O)OCCOC(=O)C(C)C)C(c2c(F)cccc2Cl)C2=C(CS(=O)(=O)CCS2(=O)=O)N1` (stereo not drawn) [Compound 64] it is 220 nM; for `CC1=C(C(=O)OCC(=O)OCc2ccccc2)C(c2c(F)cccc2Cl)C2=C(CS(=O)(=O)CCS2(=O)=O)N1` (stereo not drawn) [Compound 66] it is 279 nM.
